Test results taken from patent US20040002479A1, “Peptide analogues and uses thereof” (priority 2002, published 2004).

Experiment: Hydroxyapatite assay (hydroxyapatite adsorption chromatography, bone-targeting potential)
Assay type: physicochemical
Settings: corrected K=(retention time-void time)/void; TSK-Gel HA 1000 HPLC column; linear gradient 10 mM to 500 mM sodium phosphate, 0.15 N NaCl, pH 6.8
Experimental: Hydroxyapatite is the principal mineral component of bone. Hydroxyapatite adsorption chromatography is used as an assay to evaluate the bone-targeting potential of both individual bone-targeting moieties (“monomers”) and of pharmaceuticals incorporating bone-targeting groups.
Method: The rentention time of a test compound is measured using a linear gradient from 10 mM sodium phosphate, 0.15 N NaCl, pH=6.8 to 500 mM sodium phosphate, 0.15 N NaCl, […] on a TSK-Gel HA 1000 high pressure liquid chromatography column (7.5 mm×75 mm). The rentention time of the compound is expressed in terms of K=(retention time-void time)/void. This K value is corrected using two reference compounds to correct from inter-column and inter-system variation to obtain a K′ value.
Reference Compounds: K′ values were determined for known bone targeted compounds, the bisphosphonate, alendronate and tetracycline.

NCCCC(O)(P(=O)(O)O)P(=O)(O)O [Alendronate, alendronate]
K′ value: 3.7
